Measured values as given in patent publication US20040186022A1, “Enhanced herbicides” (priority 1999, published 2004).

Tests used:
[1] = system: 60 G/a: velvetleaf, black nightshade, redroot pigweed, foxtail and snapbeans; spray to drip: black nightshade, velvetleaf, foxtail and snapbeans; experiment: Efficacy of 1.5% succinic acid with oleic, caprylic or pelargonic acid in an emulsification system (Emsorb 6900); type: in vivo; design: Injury rating, total score for 2 evaluation, Spray to drip / Injury rating, total score for 2 evaluation, Total Rating: scale not given here
From the text: (§1) The herbicides were applied in the “spray to drip” amount or at a calibrated 20-60 gallons/acre. “Spray to drip” is an uncalibrated application of fluid to foliage, where sufficient spray volume is used to sufficiently saturate the foliage surface until excess fluid begins to drip from the foliage.

mixed weed varieties = experiment: Field trial comparisons of caprylic/capric and pelargonic acids on mixed weed varieties (Example 57); type: in vivo; details: rating 1-5 for each of 2 plots per treatment group, 5 = complete desiccation; grasses (dominant), dandelion, pigweed, plantain and Canadian thistle
From the text: as §1

[2] = system: mixed weed varieties; Canadian thistle; experiment: Field trial comparisons of caprylic/capric and pelargonic acids on mixed weed varieties (Example 58); type: in vivo; details: rating 1-5 for each of 2 plots per treatment group, 5 = complete desiccation
From the text: as §1

Redwood pigweed = experiment: Field trial comparisons of caprylic/capric and pelargonic acids, redroot pigweed (Example 58); type: in vivo; details: rating 1-5 for each of 2 plots per treatment group, 5 = complete desiccation
soybeans = experiment: Synergistic relationships between succinic acid and caprylic acid at different application rates, testing soybeans; type: in vivo; details: 2 days after a single foliar application, average of 2 sites, soybean Stine 2250
From the text: as §1

Turf = experiment: Synergistic relationships between succinic acid and caprylic acid (or sodium salicylate), testing turf; type: in vivo; details: 2 days after a single foliar application, 5 equals profound desiccation
From the text: as §1

Turf and Covergrass = experiment: Effects of various compounds on caprylic acid, testing turf and covergrass; type: in vivo; details: 1, 3, 6, 7 and 11 days after a single foliar application at two independent sites, 5 equals profound desiccation
From the text: as §1

Turf and Shrub Foliage = experiment: Effects of various compounds on caprylic acid, testing turf and shrub foliage; type: in vivo; details: 3, 4, 6 and 7 days after a single foliar application, 5 equals profound desiccation
From the text: as §1

[3] = Measurement of pH values for test desiccants (Example 55); type: physicochemical
[4] = Measurement of pH values for test desiccants (Example 56); type: physicochemical

## CCCCCCCCC(=O)O [3% pelargonic, pelargonic acid]
[1]; 60 G/a plus spray to drip
  Injury rating, total score for 2 evaluation, Total Rating: 122.9
[1]; 60 G/a, rating 1-5 per pot, 1% Emsorb, 0.3% Hasten
  Injury rating, total score for 2 evaluation, 60 G/a: 85.3
[1]; scale 1-5
  Average rating per pot: 4.39
[1]; spray to drip
  Injury rating, total score for 2 evaluation, Spray to drip: 37.6
Mixed weed varieties
  Average injury rating per plot: 4.175
[2]
  Average injury rating per plot: 4.03

## CCCCCCCCC(=O)O [6% pelargonic]
Redwood pigweed
  Average injury rating per plot: 4.35

## CCCCCCCC(=O)O [Caprylic Acid (1.0%)]
soybeans
  Foliage Affected (%): 22.3%
soybeans; 5 equals profound desiccation
  Overall Effect: 4
Turf
  Overall Effect: 2
Turf and Covergrass
  Overall Effect, 10 Evaluations (average): 2.45
Turf and Shrub Foliage
  Overall Effect, 29 Evaluations (average): 1.05
[3]
  pH Value: 3.93
[4]
  pH Value: 3.85
